From ChEMBL document CHEMBL5143725, “Optimization of TEAD P-Site Binding Fragment Hit into In Vivo Active Lead MSC-4106” (J Med Chem, 2022)
pIC50, pKd: −log10 of the molar value. Active and inactive are the calls of the source. The calls are words filed in the database; no cut-off is given here.

Key:
[1] = Inhibition of cysteine-rich angiogenic inducer 61 expression in human NCI-H226 cells incubated for 96 hrs by ELISA method; details: NCI-H226, 96 h
[2] = biological target: T1, Transcriptional enhancer factor TEF-4 (Homo sapiens, UniProt Q15562); assay: Inhibition of pSF-CMV-P-FLAG tagged human TEAD2 palmitoylation transfected in HEK293 cells at 10 uM incubated for 6 hrs by Western blot analysis relative to control; type: cell-based
T1 sequence (Q15562 whole entry, the tested form may be a part): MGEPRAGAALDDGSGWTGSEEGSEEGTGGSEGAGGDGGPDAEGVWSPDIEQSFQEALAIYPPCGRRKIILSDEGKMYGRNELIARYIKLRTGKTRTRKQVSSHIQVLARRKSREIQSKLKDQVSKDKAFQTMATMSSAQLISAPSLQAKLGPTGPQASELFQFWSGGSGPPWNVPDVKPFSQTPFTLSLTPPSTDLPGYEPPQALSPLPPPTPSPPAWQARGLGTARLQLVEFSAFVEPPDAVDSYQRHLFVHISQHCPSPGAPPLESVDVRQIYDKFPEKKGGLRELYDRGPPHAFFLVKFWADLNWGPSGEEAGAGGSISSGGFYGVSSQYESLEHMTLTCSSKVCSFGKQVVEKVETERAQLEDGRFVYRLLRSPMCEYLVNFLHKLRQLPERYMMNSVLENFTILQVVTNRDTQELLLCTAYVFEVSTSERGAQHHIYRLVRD

[3] = biological target: T1, Transcriptional enhancer factor TEF-4; assay: Binding affinity to human TEAD2 (217 to 447 residues) expressed in Escherichia coli BL21 Star (DE3) by surface plasmon resonance assay
[4] = system: SW-620; assay: Cytotoxicity against YAP/TAZ knockout human SW620 cells assessed as cell viability measured for 4 days by celltiter-glo assay; details: SW-620, 96 h
[5] = biological target: T2, Transcriptional enhancer factor TEF-5 (Homo sapiens, UniProt Q99594); assay: Inhibition of pSF-CMV-P-FLAG tagged human TEAD3 palmitoylation transfected in HEK293 cells at 10 uM incubated for 6 hrs by Western blot analysis relative to control; type: cell-based
T2 sequence (Q99594 whole entry, the tested form may be a part): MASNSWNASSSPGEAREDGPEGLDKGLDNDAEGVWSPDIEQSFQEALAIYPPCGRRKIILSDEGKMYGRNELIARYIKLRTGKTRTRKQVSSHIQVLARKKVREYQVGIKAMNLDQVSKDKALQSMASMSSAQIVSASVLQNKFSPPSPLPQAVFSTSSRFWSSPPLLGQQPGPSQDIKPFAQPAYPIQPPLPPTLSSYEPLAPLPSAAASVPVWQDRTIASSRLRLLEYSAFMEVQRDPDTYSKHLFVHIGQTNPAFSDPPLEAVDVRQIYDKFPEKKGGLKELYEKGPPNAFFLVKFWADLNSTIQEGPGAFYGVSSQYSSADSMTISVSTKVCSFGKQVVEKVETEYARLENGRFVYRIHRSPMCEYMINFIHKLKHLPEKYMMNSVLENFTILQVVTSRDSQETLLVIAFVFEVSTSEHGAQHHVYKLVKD

[6] = biological target: T3, Transcriptional enhancer factor TEF-3 (Homo sapiens, UniProt Q15561); assay: Binding affinity to human TEAD4 (217 to 434 residues) expressed in Escherichia coli BL21 Star (DE3) by surface plasmon resonance assay
T3 sequence (Q15561 whole entry, the tested form may be a part): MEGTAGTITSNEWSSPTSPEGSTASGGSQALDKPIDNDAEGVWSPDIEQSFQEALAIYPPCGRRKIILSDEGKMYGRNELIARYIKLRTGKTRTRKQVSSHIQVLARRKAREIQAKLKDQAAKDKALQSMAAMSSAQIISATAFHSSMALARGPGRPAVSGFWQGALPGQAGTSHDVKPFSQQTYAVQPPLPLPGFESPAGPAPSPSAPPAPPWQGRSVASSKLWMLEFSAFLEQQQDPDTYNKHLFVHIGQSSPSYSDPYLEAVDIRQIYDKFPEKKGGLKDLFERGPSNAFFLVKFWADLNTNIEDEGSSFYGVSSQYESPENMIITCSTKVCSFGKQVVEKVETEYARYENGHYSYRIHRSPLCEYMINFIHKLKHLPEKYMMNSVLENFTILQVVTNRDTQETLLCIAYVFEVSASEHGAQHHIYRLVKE

[7] = biological target: T1, Transcriptional enhancer factor TEF-4; assay: Binding affinity to human TEAD2 (217 to 447 residues) expressed in Escherichia coli BL21 Star (DE3) assessed as change in melting temperature incubated for 2 hrs by measuring tryptophane fluorescence by Nano Differential scanning fluorometry
[8] = Inhibition of YAP/TAZ-TEAD interaction in human SK-HEP1 cells incubated for 24 hrs by luciferase reporter gene assay; type: cell-based
[9] = biological target: T4, Transcriptional enhancer factor TEF-1 (Homo sapiens, UniProt P28347); details: HEK293, dose 100.0 nM, time 6.0 hrs
T4 sequence (P28347 whole entry): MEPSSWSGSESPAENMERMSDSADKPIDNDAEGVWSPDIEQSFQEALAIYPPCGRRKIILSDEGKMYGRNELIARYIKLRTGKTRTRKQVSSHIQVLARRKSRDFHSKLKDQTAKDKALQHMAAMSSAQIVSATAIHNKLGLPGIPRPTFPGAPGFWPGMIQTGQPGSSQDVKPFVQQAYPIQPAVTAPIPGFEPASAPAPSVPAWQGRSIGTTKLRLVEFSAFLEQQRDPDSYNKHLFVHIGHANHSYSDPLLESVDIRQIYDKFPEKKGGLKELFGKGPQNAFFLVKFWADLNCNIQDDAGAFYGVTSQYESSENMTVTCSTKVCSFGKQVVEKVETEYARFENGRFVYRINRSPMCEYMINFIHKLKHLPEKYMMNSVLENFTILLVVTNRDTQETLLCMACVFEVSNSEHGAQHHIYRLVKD

[10] = biological target: T3, Transcriptional enhancer factor TEF-3; assay: Inhibition of pSF-CMV-P-FLAG tagged human TEAD4 palmitoylation transfected in HEK293 cells at 10 uM incubated for 6 hrs by Western blot analysis relative to control; type: cell-based
[11] = biological target: T2, Transcriptional enhancer factor TEF-5; assay: Inhibition of pSF-CMV-P-FLAG tagged human TEAD3 palmitoylation transfected in HEK293 cells at 1 uM incubated for 6 hrs by Western blot analysis relative to control; type: cell-based
[12] = biological target: T4, Transcriptional enhancer factor TEF-1; assay: Inhibition of pSF-CMV-P-FLAG tagged human TEAD1 palmitoylation transfected in HEK293 cells at 10 uM incubated for 6 hrs by Western blot analysis relative to control; type: cell-based
[13] = Inhibition of connective tissue growth factor expression in human SK-HEP1 cells incubated for 96 hrs by ELISA method; details: SK-HEP1, 96 h
[14] = biological target: T2, Transcriptional enhancer factor TEF-5; assay: Binding affinity to human TEAD3 (216 to 435 residues) expressed in Escherichia coli BL21 Star (DE3) by surface plasmon resonance assay
[15] = Inhibition of cysteine-rich angiogenic inducer 61 expression in human SK-HEP1 cells incubated for 96 hrs by ELISA method; details: SK-HEP1, 96 h
[16] = biological target: T4, Transcriptional enhancer factor TEF-1; assay: Binding affinity to human TEAD1 (209 to 426 residues) expressed in Escherichia coli BL21 Star (DE3) by surface plasmon resonance assay
[17] = Inhibition of connective tissue growth factor expression in human NCI-H226 cells incubated for 96 hrs by ELISA method; details: NCI-H226, 96 h
[18] = system: NCI-H226; assay: In vivo antitumor activity against human NCI-H226 cells xenografted in mouse model assessed as tumor growth inhibition at 100 mg/kg, po qd measured after 32 days; type: functional, organism-based; details: time 32.0 day
[19] = biological target: T2, Transcriptional enhancer factor TEF-5; assay: Binding affinity to human TEAD3 (216 to 435 residues) expressed in Escherichia coli BL21 Star (DE3) assessed as change in melting temperature incubated for 2 hrs by measuring tryptophane fluorescence by Nano Differential scanning fluorometry
[20] = biological target: T4, Transcriptional enhancer factor TEF-1; assay: Binding affinity to human TEAD1 (209 to 426 residues) expressed in Escherichia coli BL21 Star (DE3) assessed as change in melting temperature incubated for 2 hrs by measuring tryptophane fluorescence by Nano Differential scanning fluorometry
[21] = biological target: T1, Transcriptional enhancer factor TEF-4; assay: Binding affinity to human TEAD2 (217 to 447 residues) expressed in Escherichia coli BL21 Star (DE3) assessed as change in melting temperature incubated for 2 hrs measuring scattering fluorescence by Nano Differential scanning fluorometry
[22] = biological target: T3, Transcriptional enhancer factor TEF-3; assay: Binding affinity to human TEAD4 (217 to 434 residues) expressed in Escherichia coli BL21 Star (DE3) assessed as change in melting temperature incubated for 2 hr by measuring tryptophane fluorescence by Nano Differential scanning fluorometry

pIC50 [1]: 7.89
inhibition [2]: 24%
pKd [3]: 5.34
inhibition [5]: 81%
pKd [6]: 5.27
ΔTm [7]: -3.7 °C
pIC50 [8]: 8.40
inhibition [9]: 55.7%
inhibition [10]: 12%
inhibition [11]: 3.8%
inhibition [12]: 90%
pKd [14]: 5.85
pIC50 [15]: 7.62
pKd [16]: 6.92
ΔTm [19]: 5.1 °C
ΔTm [20]: 13.4 °C
ΔTm [21]: 3.7 °C
ΔTm [22]: 0.4 °C
Structure (SMILES): Cn1cc2c3cc(C(=O)O)ccc3n(-c3ccc(C(F)(F)F)cc3)c2n1
pIC50 [4]: < 4.52
pIC50 [13]: 8.00
pIC50 [17]: 7.96
Activity [18]: Active
